{"source": "patent US5283353A", "about": "“Preparation of 1-amino-1-deoxyoligosaccharides and derivatives thereof” (Genzyme Corporation, priority 1990, dated 1994)", "key": {"[1]": {"assay": "Hydrolysis of 1-amino-1-deoxy-N-acetylglucosamine to 2-acetamido-2-deoxy-D-glucose in 50 mM phosphate p2H 7.0 buffer, followed by 1H NMR", "type": "physicochemical", "conditions": "for Pseudo-first order rate constant for hydrolysis: calculated", "method": "To a solution of 1 mg of turkey ovomucoid glycopeptide (a heterogeneous mixture of three structurally related complex type oligosaccharides purified as described by E. M. Taga et al., Biochemistry, 23, 815-822 (1984)) in 50 mM phosphate, p^2 H 7.0 buffer in 99.96% ^2 H2 O equilibrated at the desired temperature was added the almond amidohydrolase enzyme to give a total volume of 0.5 ml. The reaction was followed by ^1 H NMR. The hydrolysis of 1-amino-1-deoxy-N-acetylglucosamine in 50 mM phosphate, p^2 H 7.0, buffer in 99.96% ^2 H2 O to 2-acetamido-2-deoxy-D-glucose was followed by ^1 H NMR as a reference compound. The proton peaks of interest were integrated and the pseudo first-order rate constant was calculated from the slope of a plot of the natural logarithm of the peak area as a function of time.\nThe rate of hydrolysis for the model compound was readily measured using ^1 H NMR. Upon hydrolysis, the ^1 H NMR signal for the anomeric proton of the model compound shifts downfield from 4.189 ppm (J1,2 =9.35 Hz) to 5.195 ppm (J1,2 =3.38 Hz) and 4.709 ppm (J1,2 =3.38 Hz), the former the alpha-anomer and the latter the beta-anomer of the product, N-acetylglucosamine, while the chemical shift of the N-acetyl group is unchanged. The pseudo-first order rate constants for the enzyme-catalyzed reaction and for the hydrolysis of the model compound are given in Table I; based on least squares standard error analysis, the precision in the pseudo-first order rate constant is ±5%. These limited data give energies of activation for the enzyme-catalyzed reaction of 9.5 kcal […] and for the model compound of 17.7 kcal mol^1."}, "[2]": {"conditions": "cited from earlier work"}}, "note": "Read-outs that look alike come from different tables or passages of the source."}
{"smiles": "CC(=O)N[C@@H]1[C@@H](O)[C@H](O)[C@@H](CO)O[C@H]1N", "note": "[1-Amino-N-acetylglucosamine, 1-amino-1-deoxy-N-acetylglucosamine]", "values": [{"measurement": "Pseudo-first order rate constant for hydrolysis", "setting": "[1]; p2H 7.0, 24 °C", "value": "1.08 10^3 × k (min^-1)"}, {"measurement": "Pseudo-first order rate constant for hydrolysis", "setting": "[1]; p2H 7.0, 39 °C", "value": "4.56 10^3 × k (min^-1)"}, {"measurement": "Energy of activation for hydrolysis of the model compound", "setting": "[1]; p2H 7.0, from rate constants of Table I", "value": 17.7, "unit": "kcal mol^1"}, {"measurement": "Pseudo-first order rate constant for hydrolysis", "setting": "[2]; p2H 7.0, 22 °C", "value": "0.88 10^3 × k (min^-1)"}, {"measurement": "Pseudo-first order rate constant for hydrolysis", "setting": "[2]; p2H 7.0, 37 °C", "value": "3.81 10^3 × k (min^-1)"}]}
